According to the supplement of paper PMC10307832:

Experiments:
Assay in all cases: relative viability (nuclei count vs DMSO), 5 days (fraction); higher = more cells survive
MLN4924 + Linsitinib = compound: NS(=O)(=O)OC[C@@H]1C[C@@H](n2ccc3c(N[C@H]4CCc5ccccc54)ncnc32)C[C@@H]1O [MLN4924] + C[C@]1(O)C[C@@H](c2nc(-c3ccc4ccc(-c5ccccc5)nc4c3)c3c(N)nccn32)C1 [Linsitinib] (partner 1 µM)
Procedure, shortened: (§1)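 For relative viability, nuclei counts in treated wells were divided by those in vehicle wells. Lung cancer cell lines had been pin-tool dosed in 1536-well plates the day after seeding and cultured for 5 days, then fixed and stained in one step (final 0.05% Triton X-100, 1% formaldehyde, 1 ug/ml Hoechst) and imaged at 4×. Doses were one drug alone or a fixed anchor-drug dose plus five library-drug doses (not always all listed) in √10 steps, and values are duplicate-plate medians.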

Carboplatin + Crizotinib = compound: C1CC(C1)(C(=O)O)C(=O)O.[NH2-].[NH2-].[Pt+2] [Carboplatin] + C[C@@H](Oc1cc(-c2cnn(C3CCNCC3)c2)cnc1N)c1c(Cl)ccc(F)c1Cl [Crizotinib] (partner 1 µM)
Procedure, shortened: as §1

GSK126 + Lapatinib = compound: CC[C@H](C)N1C=C(C2=C(C=C(C=C21)C3=CN=C(C=C3)N4CCNCC4)C(=O)NCC5=C(C=C(NC5=O)C)C)C [GSK126] + CS(=O)(=O)CCNCc1ccc(-c2ccc3ncnc(Nc4ccc(OCc5cccc(F)c5)c(Cl)c4)c3c2)o1 [Lapatinib] (partner 2 µM)
Procedure, shortened: as §1

MLN4924 + Tozasertib = compound: NS(=O)(=O)OC[C@@H]1C[C@@H](n2ccc3c(N[C@H]4CCc5ccccc54)ncnc32)C[C@@H]1O [MLN4924] + Cc1cc(Nc2cc(N3CCN(C)CC3)nc(Sc3ccc(NC(=O)C4CC4)cc3)n2)n[nH]1 [Tozasertib] (partner 0.1 µM)
Procedure, shortened: as §1

Cell Line	relative viability (MLN4924 + Linsitinib; first compound 0.04 µM)	relative viability (MLN4924 + Linsitinib; first compound 0.1265 µM)	relative viability (MLN4924 + Linsitinib; first compound 0.4 µM)	relative viability (MLN4924 + Linsitinib; first compound 1.265 µM)	relative viability (MLN4924 + Linsitinib; first compound 4 µM)	relative viability (Carboplatin + Crizotinib; first compound 0.08 µM)	relative viability (Carboplatin + Crizotinib; first compound 0.253 µM)	relative viability (Carboplatin + Crizotinib; first compound 0.8 µM)	relative viability (Carboplatin + Crizotinib; first compound 2.53 µM)	relative viability (Carboplatin + Crizotinib; first compound 8 µM)	relative viability (GSK126 + Lapatinib; first compound 0.08 µM)	relative viability (GSK126 + Lapatinib; first compound 0.253 µM)	relative viability (GSK126 + Lapatinib; first compound 0.8 µM)	relative viability (GSK126 + Lapatinib; first compound 2.53 µM)	relative viability (GSK126 + Lapatinib; first compound 8 µM)	relative viability (MLN4924 + Tozasertib; first compound 0.04 µM)	relative viability (MLN4924 + Tozasertib; first compound 0.1265 µM)	relative viability (MLN4924 + Tozasertib; first compound 0.4 µM)	relative viability (MLN4924 + Tozasertib; first compound 1.265 µM)	relative viability (MLN4924 + Tozasertib; first compound 4 µM)
NCI-H2347	0.908	0.731	0.57	0.424	0.41	0.903	0.697	0.635	0.571	0.632	1.04	1.04	0.917	0.994	0.94	0.647	0.546	0.386	0.283	0.241
NCI-H2405	1.09	1.12	0.686	0.246	0.245	0.901	0.906	0.847	0.813	0.754	1.12	1.02	1.06	1.17	1.15	0.802	0.644	0.484	0.231	0.266
NCI-H3122	0.958	0.429	0.291	0.172	0.115	0.3	0.299	0.275	0.323	0.28	1.01	1.01	1.04	0.965	0.95	0.347	0.226	0.113	0.0963	0.103
PC-3 [JPC-3]	0.975	0.923	0.679	0.383	0.386	1.03	1.04	0.962	0.966	0.902	0.43	0.489	0.527	0.477	0.462	0.903	0.785	0.652	0.366	0.275
PC-14	0.975	0.79	0.366	0.143	0.144	0.895	0.856	0.851	0.83	0.532	0.359	0.309	0.292	0.307	0.326	0.592	0.569	0.605	0.177	0.0608
RERF-LC-KJ	0.64	0.463	0.198	0.188	0.234	0.824	0.861	0.84	0.72	0.631	0.927	0.854	0.822	0.889	0.867	0.471	0.366	0.193	0.202	0.201
SK-LU-1	0.747	0.443	0.19	0.181	0.216	1.09	1.08	1.05	0.961	0.626	0.91	0.882	0.889	0.913	0.818	0.356	0.295	0.171	0.0898	0.111
SK-MES-1	0.976	0.825	0.35	0.215	0.207	0.958	1.02	1.01	0.914	0.909	0.496	0.455	0.482	0.431	0.46	0.773	0.682	0.33	0.157	0.189
SW 1573	0.928	0.766	0.389	0.0982	0.0789	0.821	0.781	0.652	0.886	0.661	1.09	1.07	0.989	1.27	1.28	0.235	0.207	0.0978	0.0941	0.0688
